Read-outs that look alike come from different tables or passages of the source.
Assays:
T cell clone MS60:D2 = test: Presentation of nested MBP peptides by fixed APC (Mgar cells) to T cell clone MS60:D2, proliferation assay; format: cell-based, human; conditions: p-formaldehyde fixed Mgar (HLA-DR2+ve) cells, T cell clone MS60:D2, 3H-thymidine uptake, FIG. 1
[1] = tested on: lymph node cells of HLA:DR2 transgenic mice; test: Induction of tolerance in HLA:DR2 transgenic mouse, lymph node proliferation assay; format: in vivo
T cell clone N5 = test: Presentation of MBP peptide 140-154 by fixed APC to T cell clone N5, proliferation assay; format: cell-based, human; conditions: T cell clone N5, FIG. 2
Description: MBP-specific T cell lines (TCL) are generated from 8 MS patients and 2 healthy control donors. PBMC from each subject are separated as described above and plated out at 1×10^6 cells/ml in 6-well plates in the presence of MBP (50 μg/ml); a portion of PBMC from each subject is regularly frozen and stored for subsequent restimulations. Seven days later the cells are fed with fresh medium containing 2% IL-2 (Lymphocult-HT; Biotest LTD., Birmingham, UK), and on day 12 of culture all cells are restimulated with antigen, IL-2 and irradiated (2500 Rad) autologous PBMC as a source of antigen presenting cells (APC), at a cell ratio of 1T cell:5 APC. Cells are expanded in IL-2 every 3-4 days, and on day 14 are restimulated with antigen, IL-2 and PBMC, as described above. On the day of the first restimulation cells are examined for specific proliferation to MBP. Briefly, 2×10^4 T cells and 1×10^5 irradiated autologous PBMC are cultured in triplicate, in 96-well round-bottom plates, in the presence of MBP. […]
Live or p-formaldehyde fixed Mgar (HLA-DR2+ve) cells were incubated with peptides in serum or in serum alone, together with T cells. The T cell proliferative response was measured by ^3H-thymidine uptake as follows. […] [^3H]-Thymidine incorporation is determined using a Microbeta liquid scintillation counter (LKB-Wallac). […]

[2] = cited from earlier work; for induction of tolerance: administered in solution
I-A^S = target: T1, I-A^S (Mus musculus, UniProt P06345+P14437); conditions: cited from earlier work
T1 sequence (P14437 1-233): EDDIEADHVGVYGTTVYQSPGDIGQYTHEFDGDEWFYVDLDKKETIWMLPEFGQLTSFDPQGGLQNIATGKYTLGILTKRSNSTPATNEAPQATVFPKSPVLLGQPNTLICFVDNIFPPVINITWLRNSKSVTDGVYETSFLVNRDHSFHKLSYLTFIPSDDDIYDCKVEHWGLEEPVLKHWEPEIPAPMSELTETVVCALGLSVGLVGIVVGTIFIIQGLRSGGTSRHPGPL
T1 sequence (P06345 28-263): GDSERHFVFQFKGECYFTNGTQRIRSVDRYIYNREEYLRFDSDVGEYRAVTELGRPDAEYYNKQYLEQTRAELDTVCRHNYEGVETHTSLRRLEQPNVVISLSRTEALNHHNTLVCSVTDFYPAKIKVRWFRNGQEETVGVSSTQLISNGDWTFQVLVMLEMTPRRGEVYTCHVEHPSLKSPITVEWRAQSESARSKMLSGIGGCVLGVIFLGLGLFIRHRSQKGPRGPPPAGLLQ

AHKGFKGVDAQGTLS (listed as Homo sapiens) [MBP 137-151, myelin basic protein peptide 137-151]
presentation by fixed APC to T cells without further processing (apitope) (T cell clone MS60:D2): apitopes

GFKGVDAQGTLSKIF (listed as Homo sapiens) [MBP 140-154, myelin basic protein peptide 140-154]
SI values of the one pre-treated mouse that failed to show induction of tolerance ([1]; Group B, over peptide concentration range 1-150 ugml^-1): 12-15 | Stimulation Index (SI) median of lymphocyte proliferation ([1]; Group B: 100 ug peptide i.n. days -8, -6, -4, immunised with same peptide in CFA, restimulated with 150 ugml^-1 peptide): 3 | induction of tolerance ([1]; intranasal pre-treatment, lymphocytes from HLA-DR2 mice): induced tolerance | presentation by fixed APC to T cells without further processing (apitope) (T cell clone MS60:D2): apitopes | presentation by fixed APC without further processing (T cell clone N5): can be presented by fixed APC without further processing

HKGFKGVDAQGTLSK (listed as Homo sapiens) [MBP 138-152, myelin basic protein peptide 138-152]
presentation by fixed APC to T cells without further processing (apitope) (T cell clone MS60:D2): apitopes

KGFKGVDAQGTLSKI (listed as Homo sapiens) [MBP 139-153, myelin basic protein peptide 139-153]
presentation by fixed APC to T cells without further processing (apitope) (T cell clone MS60:D2): apitopes

KSAHKGFKGVDAQGT (listed as Homo sapiens) [MBP 135-149, myelin basic protein peptide 135-149]
presentation by fixed APC to T cells without further processing (apitope) (T cell clone MS60:D2): apitopes

MBP[89-101]: myelin basic protein (MBP) peptide 89-101, an immunodominant antigen after immunisation (PHLIRLFSRDAPG; UniProt P04370 89-101, looked up, fragment)
induction of tolerance [2]: not tolerogenic | induction of tolerance ([2]; listed as 89-101): ineffective at inducing tolerance | immunogenicity (priming for T cell reactivity and induction of EAE) ([2]; after immunisation): very effective immunogen | affinity of binding to I-A^S (I-A^S): relatively high affinity

SAHKGFKGVDAQGTL (listed as Homo sapiens) [MBP 136-150, myelin basic protein peptide 136-150]
presentation by fixed APC to T cells without further processing (apitope) (T cell clone MS60:D2): apitopes

YKSAHKGFKGVDAQG (listed as Homo sapiens) [MBP 134-148, myelin basic protein peptide 134-148]
presentation by fixed APC to T cells without further processing (apitope) (T cell clone MS60:D2): apitopes

Reference: patent US7071297B2, “Tolerogenic peptides from myelin basic protein” (Apitope Technology (Bristol) Limited, priority 2002, dated 2006)
